Source: patent US20080208179A1, “METHODS OF INCREASING SKIN PERMEABILITY BY TREATMENT WITH ELECTROMAGNETIC RADIATION” (Reliant Technologies, Inc., priority 2006, published 2008)

How the values were obtained:
Assay type in all cases: in vitro ADME
[1] = In vitro permeation of 5-Fluorouracil through fractional laser treated ex vivo human skin (Example 8)
Description: In vitro permeation studies were performed on untreated and treated ex vivo human skin to determine if treatment of the skin with fractional laser radiation increased skin permeability to a 0.5% (w/v) 5-Fluorourocil solution. The treatment was conducted using the methods outlined in Examples 6 and 7 using a Fraxel Re:store™ laser system (Reliant Technologies, Mountain View, Calif., USA). The treatment parameters used included a laser pulse energy of 10 mJ, a 60 μm incident optical spot size, and a final spot density of 2000 MTZ/cm^2. The skin graft thickness used was 500 μm. The experiment consisted of a total of 6 individual runs (n=6). The uptake study was conducted using an infinite dose regimen.
The total uptake was taken as the sum of the permeated and retained 5-Fluorouracil. The permeation values were calculated at each time point and plotted as a cumulative value in FIG. 16. Over the course of the study (24 hours), the uptake of 5-Fluorouracil from the untreated skin (control) remained below 0.2 mg/cm^2, while the uptake of 5-Fluorouracil from the laser treated skin approached 1.4 mg/cm^2 after 24 hours.

[2] = In vitro permeation of ascorbic acid through fractional laser treated ex vivo human skin (Example 6, 60 μm treatment zone size); details: for Retention Ratio / Total Uptake Ratio: delivery mode not given; for Cumulative permeation / Enhancement ratio (total uptake by treatment/total uptake in control) / Retention / Total uptake: 90 min
Description: In vitro permeation studies were performed on untreated and treated human skin to determine if treatment of the skin with fractional laser radiation increased skin permeability to ascorbic acid. The treatment consisted of exposing the skin in vitro to fractional laser radiation. This study also evaluated the effect of using the laser radiation using the contact delivery mode and the non-contact delivery mode.
Ex vivo skin: All ex vivo laser treatments were performed using a 1550 nm laser system on freshly excised human abdominal skin (Fitzpatrick skin type II).
Laser parameters: Arrays of single mode Gaussian beams of 60 μm 1/e^2 diameter at incidence were delivered to the surface of the skin specimen in each treatment, using contact and non-contact tips. For the contact delivery mode, the laser radiation was delivered through a sapphire window in a contact tip which abutted the specimen. For the non-contact delivery mode, the laser radiation was delivered through a contact tip without the sapphire window; thus, the laser incidence occurred at the air-tissue interface. The laser pulse energies tested for ascorbic acid uptake measurements were 10 and 20 mJ. […]
Ascorbic acid formulation: Topical vitamin C solution contained L-ascorbic acid 15% (VWR International, West Chester, Pa.), ferulic acid 0.5%, and vitamin E 1% buffered to a pH of 3.2±0.2 with triethanolamine (Lin et al, 2005). Ascorbic acid was freshly prepared avoiding light exposure just prior to each experiment.
(§1) Ascorbic acid permeation studies: The uptake studies were carried out using skin permeation systems (LGA, Inc., Berkeley, Calif.) and 500 μm thick skin grafts from freshly excised human abdominal skin. Non-laser treated skin was used as a control. Immediately after laser treatment, each skin sample was mounted on a permeation system whose donor compartment was then filled with ascorbic acid solution (Lee et al, 2003). The entire arrangement was incubated to simulate body temperature. Aliquots were drawn at 5, 10, 15, 30, 60, and 90 min, and quantitatively analyzed for permeated ascorbic acid using high performance liquid chromatography (HPLC). After 90 min, each skin sample was washed thoroughly in saline, weighed, homogenized and centrifuged (Lee et al, 2003). This was followed by HPLC analysis to determine the retained ascorbic acid value. The measured retention was then normalized to the effective area of skin sample through which permeation occurred. Each experiment constituted a total of 5 individual runs (n=5).
Data analysis: The total uptake was taken as the sum of the permeated and retained ascorbic acid. The permeation values were calculated at each time point and plotted as a cumulative value. The uptake enhancement ratio represents the total ascorbic acid uptake for laser treated skin divided by the total uptake for untreated skin at 90 min.

[3] = In vitro permeation of ascorbic acid through fractional laser treated ex vivo human skin (Example 7, 85 μm spot size); details: for Cumulative permeation / Enhancement ratio (total uptake in treated sample/total uptake in control) / Retention / Total uptake: 90 min; for Normalized cumulative permeation at 10 mJ @ 2000 MTZ/cm2 relative to 20 mJ @ 1000 MTZ/cm2: by 90 min
Description: In vitro permeation studies were performed on untreated and treated human skin to determine if treatment of the skin with fractional laser radiation increased skin permeability to ascorbic acid.
A modified 1550 nm Fraxel® SR laser system was operated as previously described by Bedi et al., Lasers Surg Med, 2007 February; 39(2):145-55. Arrays of single mode Gaussian beams of 85 μm 1/e^2 diameter at incidence were delivered to the surface of the skin specimen in each treatment, using contact and non-contact tips. The contact tip abutted the specimen through a sapphire window through which the laser beam was irradiated. The non-contact tip omitted the sapphire window; thus, the laser incidence occurred at the air-tissue interface. The laser pulse energies tested for ascorbic acid uptake measurements were 10 and 20 mJ. For each 10 mJ treatment, 8 passes at 250 microscopic treatment zones (MTZs) per cm^2 were made at a constant velocity of 1.0 cm per second producing a final spot density of 2000 MTZs per cm^2; for each 20 mJ treatment, 4 passes at 250 microscopic treatment zones (MTZs) per cm^2 were made at a constant velocity of 1.0 cm per second producing a final spot density of 1000 MTZs per cm^2. These pulse energy and spot density combination parameters are similar to those used in a typical clinical NFR™ treatment session. Histologic examination was performed for pulse energies ranging from 6 to 40 mJ at a fixed spot size of 85 μm. The pulse durations ranged from 0.24 to 1.6 msec per pulse.
Topical vitamin C solution contained L-ascorbic acid 15% (VWR International, West Chester, Pa.), ferulic acid 0.5%, and vitamin E 1% buffered to a pH of 3.2±0.2 with triethanolamine (Lin et al, 2005). Ascorbic acid was freshly prepared avoiding light exposure just prior to each experiment.
as §1, with “The uptake” for “Ascorbic acid permeation studies: The uptake”, “and 90 min from the diffusion chamber, and quantitatively” for “and 90 min, and quantitatively”
The total uptake was taken as the sum of the permeated and retained ascorbic acid over the cross-sectional area of the skin through which uptake occurred. The permeation values were calculated at each time point and plotted as a cumulative value. The uptake enhancement ratio represents the total ascorbic acid uptake for laser treated skin divided by the total uptake for untreated skin at 90 min.

[4] = 10 mJ, 60 μm spot size, 2000 MTZ/cm2, 0.5% (w/v) solution, n=6
[5] = 20 mJ, 1000 TZ/cm2, contact mode
[6] = 20 mJ, 1000 TZ/cm2, non-contact mode
[7] = 1550 nm, 60 μm, 20 mJ, contact mode, 1000 TZ/cm2
[8] = 1550 nm, 60 μm, 20 mJ, non-contact mode, 1000 TZ/cm2
[9] = control, non-laser treated skin
[10] = skin group not stated (sentence follows the control value)
[11] = 1550 nm, 85 μm, 10 mJ, contact mode, 2000 MTZ/cm2
[12] = 1550 nm, 85 μm, 20 mJ, contact mode, 1000 MTZ/cm2
[13] = 1550 nm, 85 μm, 20 mJ, non-contact mode, 1000 MTZ/cm2
[14] = 1550 nm, 85 μm, non-contact mode, pulse energy 20 mJ, text b229 prints 10 mJ @ 2000 MTZ/cm2

For `O=c1[nH]cc(F)c(=O)[nH]1` [5-Fluorouracil], which Permeation, Ratio ± Standard Deviation [1, 4] is on record?
Its Permeation, Ratio ± Standard Deviation is 37.7 ± 10.6.

And the Retention, Ratio ± Standard Deviation [1, 4]?
Its Retention, Ratio ± Standard Deviation is 2.4 ± 0.8.

And the Uptake, Ratio ± Standard Deviation [1, 4]?
The Uptake, Ratio ± Standard Deviation was 20.3 ± 5.3.

And the Uptake ([1]; laser treated skin, 10 mJ, 60 μm, 2000 MTZ/cm2, after 24 hours)?
The Uptake was ~1.4 mg/cm^2.

And the Uptake ([1]; untreated skin (control), over 24 hours)?
Its Uptake is “below 0.2 mg/cm^2”.

For `O=C1O[C@H]([C@@H](O)CO)C(O)=C1O` [ascorbic acid, L-ascorbic acid], which “Retention Ratio” value ([2]; 10 mJ, 1000 TZ/cm2) is on record?
The value was 1.8.

What about the “Total Uptake Ratio” value ([2]; 10 mJ, 1000 TZ/cm2) of the same compound?
Its value is 2.9.

And the “Retention Ratio” value ([2]; 10 mJ, 2000 TZ/cm2)?
Its value is 2.0.

And the “Total Uptake Ratio” value ([2]; 10 mJ, 2000 TZ/cm2)?
The value was 4.2.

And the “Retention Ratio” value ([2]; 20 mJ, 500 TZ/cm2)?
The value was 1.3.

What about the “Total Uptake Ratio” value ([2]; 20 mJ, 500 TZ/cm2) of the same compound?
The value was 7.0.

And the “Retention Ratio (retained by treated skin / retained by control skin)” value [2, 5]?
The value was 2.1.

And the “Total Uptake Ratio (treated skin / control skin)” value [2, 5]?
The value was 5.3.

And the “Retention Ratio (retained by treated skin / retained by control skin)” value [2, 6]?
The value was 3.8.

And the “Total Uptake Ratio (treated skin / control skin)” value [2, 6]?
Its value is 9.6.

What about the “Retention Ratio” value ([2]; 20 mJ, 1000 TZ/cm2) of the same compound?
The value was 3.8.

And the “Total Uptake Ratio” value ([2]; 20 mJ, 1000 TZ/cm2)?
The value was 9.6.

What about the “Cumulative permeation over time, non-contact mode compared with contact mode” value ([2]; 20 mJ, FIG. 12) of the same compound?
The value was “higher permeation levels”.

And the Cumulative permeation [2, 7]?
The Cumulative permeation was 0.20 ± 0.03 mg.

And the “Enhancement ratio (total uptake by treatment/total uptake in control)” value [2, 7]?
The value was 5.3.

What about the Retention [2, 7] of the same compound?
Its Retention is 0.13 ± 0.01 mg.

And the Total uptake [2, 7]?
The Total uptake was 0.42 ± 0.06 mg/cm2.

And the Cumulative permeation [2, 8]?
Its Cumulative permeation is 0.37 ± 0.14 mg.

And the “Enhancement ratio (total uptake by treatment/total uptake in control)” value [2, 8]?
The value was 9.6.

What about the Retention [2, 8] of the same compound?
The Retention was 0.24 ± 0.03 mg.

And the Total uptake [2, 8]?
The Total uptake was 0.77 ± 0.18 mg/cm2.

And the Cumulative permeation [2, 9]?
Its Cumulative permeation is “below”.

And the Retention [2, 9]?
Its Retention is 0.06 ± 0.01 mg.

And the Total uptake [2, 9]?
Its Total uptake is 0.08 ± 0.01 mg/cm2.

What about the “Share of the total uptake contributed by permeation” value [2, 10] of the same compound?
The value was ~70%.

What about the “Share of the total uptake contributed by retention” value [2, 10] of the same compound?
The value was “Approximately 30%”.

And the “Improvement of uptake in non-contact mode over contact mode at identical laser parameters” value ([3]; 10 mJ @ 2000 MTZ/cm2)?
The value was ~4 ×.

And the “Improvement of uptake in non-contact mode over contact mode at identical laser parameters” value ([3]; 20 mJ @ 1000 MTZ/cm2)?
The value was ~3 ×.

What about the Cumulative permeation [3, 11] of the same compound?
Its Cumulative permeation is 0.49 ± 0.07 mg.

And the “Enhancement ratio (total uptake in treated sample/total uptake in control)” value [3, 11]?
Its value is 6.6.

What about the Retention [3, 11] of the same compound?
The Retention was 0.22 ± 0.02 mg.

What about the Total uptake [3, 11] of the same compound?
Its Total uptake is 0.90±0.07 mg/cm2.

What about the Cumulative permeation [3, 12] of the same compound?
The Cumulative permeation was 0.27 ± 0.10 mg.

And the “Enhancement ratio (total uptake in treated sample/total uptake in control)” value [3, 12]?
The value was 3.6.

And the Retention [3, 12]?
Its Retention is 0.12 ± 0.02 mg.

And the Total uptake [3, 12]?
The Total uptake was 0.49±0.14 mg/cm2.

And the Cumulative permeation [3, 13]?
Its Cumulative permeation is 0.90 ± 0.27 mg.

And the “Enhancement ratio (total uptake in treated sample/total uptake in control)” value [3, 13]?
Its value is 10.3.

And the Retention [3, 13]?
Its Retention is 0.19 ± 0.02 mg.

And the Total uptake [3, 13]?
The Total uptake was 1.40±0.31 mg/cm2.

What about the Cumulative permeation ([3]; 1550 nm, 85 μm, non-contact mode, pulse energy 20 mJ, text b227 prints 10 mJ @ 2000 MTZ/cm2) of the same compound?
Its Cumulative permeation is 2.41 ± 0.44 mg.

What about the Retention ([3]; 1550 nm, 85 μm, non-contact mode, pulse energy 20 mJ, text b228 prints 10 mJ @ 2000 MTZ/cm2) of the same compound?
The Retention was 0.40 ± 0.09 mg.

What about the “Enhancement ratio (total uptake in treated sample/total uptake in control)” value [3, 14] of the same compound?
Its value is 26.3.

What about the Total uptake [3, 14] of the same compound?
The Total uptake was 3.58±0.54 mg/cm2.

What about the “Permeation into the diffusion chamber” value ([3]; all conditions of laser treatment tested) of the same compound?
Its value is “observed to permeate into the diffusion chamber”.

And the “Normalized cumulative permeation at 10 mJ @ 2000 MTZ/cm2 relative to 20 mJ @ 1000 MTZ/cm2” value ([3]; contact mode)?
Its value is “approximately 2 ×”.

And the “Total uptake at 2000 MTZ/cm2 relative to 1000 MTZ/cm2 within the respective treatment mode” value ([3]; contact or non-contact, regardless of pulse energy (10 mJ or 20 mJ))?
The value was “approximately two or more times”.

What about the Retention [3, 9] of the same compound?
Its Retention is 0.11 ± 0.01 mg.

And the Total uptake [3, 9]?
The Total uptake was 0.14±0.01 mg/cm2.

And the “Normalized cumulative permeation at 10 mJ @ 2000 MTZ/cm2 relative to 20 mJ @ 1000 MTZ/cm2” value ([3]; non-contact mode)?
Its value is “more than twice”.

What about the “Permeation measured by HPLC” value ([3]; non-irradiated ex vivo skin, up to 90 min after application) of the same compound?
The value was “no permeation”.

And the “Time until permeation was demonstrated” value ([3]; skin treated at pulse energies of 10 mJ and 20 mJ, contact mode, FIG. 13)?
The value was ≤ 5 min.
